Assay results from PMC3674958 (Investigational new drugs, 2012).

How the values were obtained:
[1] = Plasma pharmacokinetics of irinotecan and its metabolites; details: human, iv
[2] = clinical; details: human, in vivo, 400 mg
[3] = system: plasma proteins; experiment: Sorafenib fraction unbound in patient plasma by equilibrium dialysis; type: in vitro ADME; details: human

Row | Tmax ([1]; 100 mg/m2) [h] | Tmax ([1]; 120 mg/m2) [h] | Cmax ([2]; Cmax) [ng/mL] | Tmax ([2]; Tmax) [h] | fraction unbound [3] | Structure (SMILES)
1 | 1.4 | 1.4 |  |  |  | CCc1c2c(nc3ccc(OC(=O)N4CCC(N5CCCCC5)CC4)cc13)-c1cc3c(c(=O)n1C2)COC(=O)[C@]3(O)CC [Irinotecan]
2 |  |  | 4710 ± 3520 | 4.1 | 0.0027 to 0.0067 | CNC(=O)c1cc(Oc2ccc(NC(=O)Nc3ccc(Cl)c(C(F)(F)F)c3)cc2)ccn1 [Sorafenib, reference compound]
